Source: patent publication US9757415B2, “Composition comprising solanum glaucophyllum for preventing and/or treating hypocalcaemia and for stabilizing blood calcium levels” (HERBONIS AG, priority 2009, dated 2017)

Columns and labels:
cows = test: In vivo experiment, single oral bolus in cows: serum calcium and phosphate
From the text: The control group only received pectin.

in vivo = details: female, brown, Fleckvieh and Holstein, cow, serum, po, 500 ng
Description: Twenty-five cows of the races brown, Fleckvieh and Holstein of a weight of approximately 500-600 kg weight and including lactating and non-lactating subjects were allocated to 5 treatment groups as detailed in Table 6 blow. The animals were given a single dose of the test preparation orally per bolus. Blood was taken at time 0 (before application) and at days 1, 2, 3, 4, 5, 7, 9 and 11 following application. From the blood, serum was prepared and calcium (total), phosphate and 1,25-(OH)2 vitamin D3 was analyzed according to established clinico-chemical methods.
Treatment: all test preparations were applied to the animal as one single bolus in a gelatine capsule (length 7 cm, diameter 2.2 cm and volume 24 mL, Capsula GmbH, Ratingen, Germany) with the aid of a usual bolus applicator. The volume that was not filled with tablets was filled up with pectin as inert excipient. The control group only received pectin.
The boluses contained, in accordance with the treatment group, instant release tablets as described in Example 3 (groups 2 and 4) and retard release tablets as prepared in Example 4 (groups 1 and 4).

[1] = day 0 (before application), n = 5, single oral bolus
[2] = day 2, n = 5, single oral bolus
[3] = day 3, n = 5, single oral bolus
[4] = day 4, n = 5, single oral bolus
[5] = day 5, n = 5, single oral bolus
[6] = day 7, n = 5, single oral bolus
[7] = day 9, n = 5, single oral bolus
[8] = day 11, n = 5, single oral bolus

Compound: C=C1/C(=C\C=C2/CCC[C@]3(C)[C@@H]([C@H](C)CCCC(C)(C)O)CC[C@@H]23)C[C@@H](O)C[C@@H]1O [Group 3, 1,25-dihydroxyvitamin D3]
- Serum calcium (mean ± standard deviation) (cows; [1]): 2.40 ± 0.2 ^ mmol/L
- Serum phosphate (mean ± standard deviation) (cows; [1]): 2.30 ± 0.07 mmol/L
- Serum calcium (mean ± standard deviation) (cows; day 1, n = 5, single oral bolus): 2.64 ± 0.05 E mmol/L
- Serum calcium (mean ± standard deviation) (cows; [2]): 2.67 ± 0.09 Ed mmol/L
- Serum phosphate (mean ± standard deviation) (cows; [2]): 2.81 ± 0.25 ED mmol/L
- Serum calcium (mean ± standard deviation) (cows; [3]): 2.72 ± 0.09 E mmol/L
- Serum phosphate (mean ± standard deviation) (cows; [3]): 3.05 ± 0.19 Ed mmol/L
- Serum calcium (mean ± standard deviation) (cows; [4]): 2.72 ± 0.06 E mmol/L
- Serum phosphate (mean ± standard deviation) (cows; [4]): 3.24 ± 0.34 E mmol/L
- Serum calcium (mean ± standard deviation) (cows; [5]): 2.61 ± 0.02 E mmol/L
- Serum phosphate (mean ± standard deviation) (cows; [5]): 2.60 ± 0.32 E mmol/L
- Serum calcium (mean ± standard deviation) (cows; [6]): 2.57 ± 0.06 e^ mmol/L
- Serum phosphate (mean ± standard deviation) (cows; [6]): 2.43 ± 0.23 e mmol/L
- Serum calcium (mean ± standard deviation) (cows; [7]): 2.56 ± 0.09 ^ mmol/L
- Serum phosphate (mean ± standard deviation) (cows; [7]): 2.05 ± 0.44 mmol/L
- Serum calcium (mean ± standard deviation) (cows; [8]): 2.45 ± 0.02 ^ mmol/L
- Serum phosphate (mean ± standard deviation) (cows; [8]): 2.10 ± 0.16 mmol/L
- concentration at 0 day (in vivo): 0.02 ng/mL
- concentration at 1 day (in vivo): 0.243 ng/mL
- concentration at 2 day (in vivo): 0.15 ng/mL
- concentration at 3 day (in vivo): 0.056 ng/mL
- concentration at 4 day (in vivo): 0.04 ng/mL
- concentration at 5 day (in vivo): 0.046 ng/mL
- concentration at 7 day (in vivo): 0.03 ng/mL
- concentration at 9 day (in vivo): 0.023 ng/mL
- concentration at 11 day (in vivo): 0.025 ng/mL
